Laboratory results published in ChEMBL document CHEMBL4808180, “Identification of 2,2-Dimethylbutanoic Acid (HST5040), a Clinical Development Candidate for the Treatment of Propionic Acidemia and Methylmalonic Acidemia” (J Med Chem, 2021).

Tests used:
[1] = Reduction of acetyl carnitine in human hepatocytes derived from methylmalonic acidemia patient at 30 uM pretreated for 30 mins followed by 13C-isoleucine addition and measured after 1 hr by MS/MS analysis; assay type: functional, Hepatocyte; design: scale not given: the % may be the effect or the level left; settings: time 90 min, 1.5 h
Hepatocyte [2] = assay: Cytotoxicity against rat hepatocytes assessed as reduction in cell viability using radiolabeled compound; assay type: cell-based
[3] = Tmax in Gottingen minipig at 10 mg/kg, po using radiolabeled compound by quantitative whole-body autoradiography; assay type: ADME, organism-based, Sus scrofa domesticus; settings: pig, in vivo
[4] = Reduction of acetyl carnitine in human hepatocytes derived from methylmalonic acidemia patient pretreated for 30 mins followed by 13C-isoleucine addition and measured after 1 hr by MS/MS analysis; assay type: functional, cell-based; settings: hepatocyte
[5] = Half life in Sprague-Dawley rat at 50 mg/kg, po; assay type: ADME, organism-based; settings: in vivo
[6] = Apparent permeability across apical to basal side in human MDCK2-MDR1; assay type: ADME, Canis lupus familiaris; settings: dog, MDCK-MDR1
[7] = target: T1, Solute carrier family 22 member 6 (Homo sapiens, UniProt Q4U2R8); assay: Inhibition of human OAT1 assessed as reduction in OAT1-mediated tenofovir transport
T1 sequence (Q4U2R8 whole entry): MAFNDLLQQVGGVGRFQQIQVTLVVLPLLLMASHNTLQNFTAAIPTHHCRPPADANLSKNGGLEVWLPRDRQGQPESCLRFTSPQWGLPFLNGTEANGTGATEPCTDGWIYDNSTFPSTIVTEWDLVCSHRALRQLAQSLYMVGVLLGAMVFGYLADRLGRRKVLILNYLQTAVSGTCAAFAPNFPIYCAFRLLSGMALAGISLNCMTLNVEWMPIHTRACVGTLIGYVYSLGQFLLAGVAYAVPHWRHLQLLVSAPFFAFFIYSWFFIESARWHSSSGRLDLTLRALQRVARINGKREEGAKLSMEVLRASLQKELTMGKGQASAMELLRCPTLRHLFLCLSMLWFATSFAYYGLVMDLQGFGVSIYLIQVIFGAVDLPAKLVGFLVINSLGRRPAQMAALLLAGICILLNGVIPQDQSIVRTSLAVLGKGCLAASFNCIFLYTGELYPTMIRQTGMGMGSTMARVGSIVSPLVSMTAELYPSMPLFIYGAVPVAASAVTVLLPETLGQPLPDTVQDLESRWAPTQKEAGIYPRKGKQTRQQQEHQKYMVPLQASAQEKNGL

[8] = AUC (0 to infinity) in CD1 mouse at 30 mg/kg, po; assay type: ADME, organism-based; design: time infinity, route oral, dose 30 mg/kg; settings: in vivo
[9] = Oral bioavailability in CD1 mouse at 100 mg/kg; assay type: ADME, organism-based; settings: in vivo
[10] = Oral bioavailability in Sprague-Dawley rat at 10 mg/kg; assay type: ADME, organism-based; settings: in vivo
[11] = Apparent permeability of the compound across apical to basal side in human Caco-2 cells; assay type: ADME, cell-based
[12] = Cmax in CD1 mouse at 100 mg/kg, po; assay type: ADME, organism-based; design: route oral, dose 100 mg/kg; settings: in vivo
[13] = Drug metabolism in Gottingen minipig plasma assessed as HST5040-glycine metabolite formation at 10 mg/kg administered as single dose by LC/MS analysis; assay type: ADME, organism-based, Sus scrofa domesticus; settings: pig, in vivo
[14] = Reduction of propionyl carnitine in human hepatocytes derived from propionic acidemia patient at 30 uM pretreated for 30 mins followed by 13C-isoleucine addition and measured after 1 hr by MS/MS analysis relative to control; assay type: functional, Hepatocyte; design: scale not given: the % may be the effect or the level left; settings: time 90 min, 1.5 h
[15] = Reduction of propionyl-CoA in human hepatocytes derived from methylmalonic acidemia at 30 uM pretreated for 30 mins followed by 13C-isoleucine addition and measured after 1 hr by MS/MS analysis relative to control; assay type: functional, Hepatocyte; design: scale not given: the % may be the effect or the level left; settings: time 90 min, 1.5 h
[16] = AUC (0 to infinity) in CD1 mouse at 100 mg/kg, po; assay type: ADME, organism-based; design: route oral, time infinity, dose 100 mg/kg; settings: in vivo
Hepatocyte [17] = assay: Cytotoxicity against minipig hepatocytes assessed as reduction in cell viability using radiolabeled compound; assay type: cell-based, Sus scrofa domesticus; settings: pig
[18] = AUC (0 to infinity) in Gottingen minipig at 10 mg/kg, po using radiolabeled compound by quantitative whole-body autoradiography; assay type: ADME, organism-based, Sus scrofa domesticus; design: time infinity, route oral, dose 10 mg/kg; settings: pig, in vivo
[19] = Volume of distribution in Sprague-Dawley rat at 10 mg/kg, iv; assay type: ADME, organism-based; settings: in vivo
[20] = AUC (0 to infinity) in Sprague-Dawley rat at 200 mg/kg, po; assay type: ADME, organism-based; design: route oral, time infinity, dose 200 mg/kg; settings: in vivo
[21] = Reduction of CoASH in human hepatocytes at 30 uM pretreated for 30 mins followed by 13C-isoleucine addition and measured after 1 hr by MS/MS analysis relative to control; assay type: functional, Hepatocyte; design: scale not given: the % may be the effect or the level left; settings: time 90 min, 1.5 h
[22] = target: T2, Multidrug and toxin extrusion protein 1 (Homo sapiens, UniProt Q96FL8); assay: Inhibition of human MATE1 assessed as reduction in MATE1-mediated metformin transport at 14900 uM relative to control
T2 sequence (Q96FL8 whole entry): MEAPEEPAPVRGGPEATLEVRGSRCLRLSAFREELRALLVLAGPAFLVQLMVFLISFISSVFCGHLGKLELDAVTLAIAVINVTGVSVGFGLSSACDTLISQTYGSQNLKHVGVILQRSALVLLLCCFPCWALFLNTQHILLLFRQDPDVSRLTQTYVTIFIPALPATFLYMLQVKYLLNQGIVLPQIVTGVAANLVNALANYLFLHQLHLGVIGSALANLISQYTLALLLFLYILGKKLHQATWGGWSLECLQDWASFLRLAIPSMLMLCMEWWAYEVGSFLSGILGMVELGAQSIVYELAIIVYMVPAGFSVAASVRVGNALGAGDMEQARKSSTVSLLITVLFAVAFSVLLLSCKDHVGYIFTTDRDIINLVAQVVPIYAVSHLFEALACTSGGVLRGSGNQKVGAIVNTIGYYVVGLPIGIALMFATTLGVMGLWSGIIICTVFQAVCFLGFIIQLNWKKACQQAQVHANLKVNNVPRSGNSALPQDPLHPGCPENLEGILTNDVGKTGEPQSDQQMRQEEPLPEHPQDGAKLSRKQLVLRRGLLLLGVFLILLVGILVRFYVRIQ

[23] = Induction of toxicity in minipig assessed as induction of adverse effect at 300 mg/kg/day; assay type: organism-based, Sus scrofa domesticus; settings: pig, in vivo
[24] = Drug metabolism in Gottingen minipig plasma assessed as HST5040-carnitine metabolite formation at 10 mg/kg administered as single dose by LC/MS analysis; assay type: ADME, organism-based, Sus scrofa domesticus; settings: pig, in vivo

Compound: CCC(C)(C)C(=O)O [DIMEBUTIC ACID]
- Activity [1]: 44.6%
- Activity (Hepatocyte [2]): Non-Toxic
- Tmax [3]: 0.5 h
- EC50 [4]: 4.3 µM
- half-life [5]: 3.27 h
- Papp A→B [6]: > 20 ×10⁻⁶ cm/s
- IC50 [7]: 3860 µM
- AUC(0-inf) [8]: 37.5 µg·h/mL
- bioavailability [9]: 93.3%
- bioavailability [10]: 57.1%
- Papp A→B [11]: > 20 ×10⁻⁶ cm/s
- Cmax [12]: 118 µg/mL
- Drug metabolism [13]: Metabolite_Detected
- Activity [14]: -69.4%
- Activity [15]: -74.2%
- AUC(0-inf) [16]: 219 µg·h/mL
- Activity (Hepatocyte [17]): Non-Toxic
- AUC [18]: 91.3 µg·h/mL
- Vd [19]: 1.22 L/kg
- AUC(0-inf) [20]: 244 µg·h/mL
- Activity [21]: -35.2%
- inhibition (INH) [22]: Not Active
- Activity [23]: Non-Toxic
- Drug metabolism [24]: Metabolite_Detected
